Assay [1] is described as follows: Carbonyl compound-trapping effect of biguanide agents in phosphate buffer (Example 1). The conditions noted are these: 3 mM biguanide agent, 0.1 mM carbonyl compounds each, 0.1M phosphate buffer pH7.4, 37° C., over incubation period; HPLC.
Assay in assay [2]: as above
The note with it: 3 mM biguanide agent, 0.1 mM carbonyl compounds each, 0.1M phosphate buffer pH7.4, 37° C., over incubation period; HPLC. This is another data set of the same source.

In the case of `CCCCNC(=N)NC(=N)N` [buformin, butyl biguanide], in assay [1], the concentration of glyoxal result is “markedly decreased”. The concentration of methylglyoxal entry in assay [2] is listed as “markedly decreased”.

With `N=C(N)NC(=N)NCCc1ccccc1` [phenformin, phenethyl biguanide], the concentration of glyoxal result in assay [1] was “markedly decreased”. For the same compound, the concentration of methylglyoxal entry in assay [2] was “markedly decreased”.

For the origin of these results see patent US7169407B1, “Carbonyl stress-decreasing agent” (Kiyoshi Kurokawa, priority 1999, dated 2007).
